In patent US4895589A, “Heterocyclic compounds” (Imperial Chemical Industries PLC, priority 1985, dated 1990):
Read-outs that look alike come from different tables or passages of the source.

Tests used:
[1] = test system: plant species of Whole Plant Screen (1) or (2); test: Across screen comparison: total retardation relative to paclobutrazol (Whole Plant Screens (1) and (2)); type: in vivo; details: for Total Retardation expressed as a percentage of the total retardation caused by paclobutrazol: compounds of EP 0052424, Table XI
Description: The following Example is a general indicative comparison of compounds from EP No. 0052424 with compounds from the preferred class in the present invention. The compounds have not been side-by-side tested on this Example because of the large numbers involved but the retardant activity can be compared using a standard which has been on each test.
The compounds which are compared in this Example have been tested on one of two tests. These are the Whole Plant Screen (1) and Whole Plant Screen (2) the methods for which are described in Examples 17 and 18 respectively.
An across screen comparison between compounds is made by expressing the total retardation (ie. sum of retardation scores recorded for each species tested) caused by the compound as a percentage of the total retardation caused by the standard in that test. The standard chemical gives a measure of the performance of the test and environmental factors. By expressing the test compound activity as a percentage of the standard compound activity these factors can be eliminated . The same standard has been used in every test and this is paclobutrazol a proprietory growth regulator.

Apples = test: Intermediate Retardant Test, apples; type: in vivo, Apples (Red Delicious); details: 672 h, ~28 days, read-out: Percentage Reduction in Height of Apples (Compared to formulation blank)
Description: (§1) Three species are involved in this test RICE, SPRING-BARLEY and APPLES. The variety and growth stages at spray are outlined in Table VI. Compounds were applied at 1000 ppm and 4000 ppm respectively (1 kg and 4 kg ha^-1 at a field volume of 1000 l/ha^-1) as an overall spray. This gives a foliar and root component in the test, i.e. this test will detect the activity of both root and foliar acting compounds. The rice was grown in 4" `paddy` pots, i.e. the roots and bottom of the stems are immersed in water under conditions corresponding to those in paddy fields. Spring barley and apples were grown in 4" pots. The plants were assessed for height to top-most ligule at approximately 28 days after treatment for spring barley and rice and for height to apex at approximately 28 days after the treatment for apples. In each case the result for the 1000 ppm and 4000 ppm test for each compound is compared to the height of the formulation blank in that test, presented as a percentage reduction in height compared to the formulation blank.
as §1, with “in Table XIV. Compounds were” for “in Table VI. Compounds were”, “that test, and presented as” for “that test, presented as”

Wheat [2] = test: Whole Plant Screen (2), wheat; type: in vivo, Wheat (Timmo); details: WW, 4000 ppm
Description: (§2) Compound numbers 12-13, 16-17 and 19-20 were tested on an alternative whole plant screen (2). The compounds were tested for plant growth regulator activity against five species for various growth effects relevant to plant growth regulation.
The plant species used in this screen are presented in Table IV with the leaf stage at which they were sprayed. Each chemical was applied at 4000 ppm (4 kg/ha in a 1000 l/ha field volume) using a tracksprayer and a SS8004E (Teejet) nozzle. […]
After 2-6 weeks in the glasshouse, depending on the time of year, the plants were visually assessed for morphological characteristics. Formulation blanks were used as controls to assess the plants. […]

Rice [3] = test: Whole Plant Screen (2), rice; type: in vivo, Rice (Ishikari); details: RC, 4000 ppm
Description: (§3) After 2-6 weeks in the glasshouse, depending on the time of year, the plants were visually assessed for morphological characteristics. Formulation blanks were used as controls to assess the plants.
(§4) Compound numbers 1, 5 and 7 (of the present invention) were tested against compounds A, B, C and D (compound Nos. 12, 2, 24 and 50 of Table 1 EP No. 0052424) on whole plant screen (2). The compounds were tested of plant growth regulator activity against five species and for various growth effects relevant to plant growth regulation. The structures are set out in FIG. 1.
(§5) The plant species used in this screen are presented in Table XII with the leaf stage at which they were sprayed Each chemical was applied at 4000 ppm (4 kg/ha in a 1000 l/ha field volume) using a tracksprayer and a SS8004E (Teejet) nozzle. […]

Maize = test: Whole Plant Screen (2), maize; type: in vivo, Maize (Earliking); details: MZ, 4000 ppm
Description: as §2
The plant species used in this screen are presented in Table IV with the leaf stage at which they were sprayed. Each chemical was applied at 4000 ppm (4 kg/ha in a 1000 l/ha field volume) using a tracksprayer and a SS8004E (Teejet) nozzle.
(§6) After spray the plants were grown in a glasshouse with 25° C. day 22° C. night temperatures and supplementary lighting was supplied when necessary (from mercury vapour lamps), to provide a 16 hour photoperiod. The exception to this were the temperate cereals, wheat and barley which were grown in 16° C. day 13° C. night temperatures.
as §3, §4
The plant species used in this screen are presented in Table XII with the leaf stage at which they were sprayed Each chemical was applied at 4000 ppm (4 kg/ha in a 1000 l/ha field volume) using a tracksprayer and a SS8004E (Teejet) nozzle.
as §6, with “day/22°” for “day 22°”, “day/13°” for “day 13°”

Rice [4] = test: Intermediate Retardant Test, rice; type: in vivo, Rice (Ishikari); details: Oryza sativa, 672 h, ~28 days, read-out: Percentage Reduction in Height of Rice (Compared to formulation blank)
Description: as §1
as §1, with “in Table XIV. Compounds were” for “in Table VI. Compounds were”, “that test, and presented as” for “that test, presented as”

Spring Barley = test: Intermediate Retardant Test, spring barley; type: in vivo, Spring Barley (Atem/kym); details: Hordeum vulgare, 672 h, ~28 days, read-out: Percentage Reduction in Height of Spring Barley (Compared to formulation blank)
Description: as §1
as §1, with “in Table XIV. Compounds were” for “in Table VI. Compounds were”, “that test, and presented as” for “that test, presented as”

Barley = test: Whole Plant Screen (2), barley; type: in vivo, Barley (Atem); details: BR, 4000 ppm
Description: as §4, §5

Wheat [5] = details: WW, 4000 ppm, 2-3 weeks
Tomato = details: TO, 4000 ppm, 2-3 weeks
Cynosurus cristatus = details: CC, 4000 ppm, 2-3 weeks
Description: The compounds were tested for plant growth regulator activity against up to tweleve plant species for various growth effects relevant to plant growth regulation.
After spray, the plants were grown in a glasshouse with 25° C. day/22° C. night temperatures and supplementary lighting was supplied when necessary (from mercury vapour lamps), to provide a 16 hour photoperiod. The exception to this were the temperate cereals, wheat and barley, which were grown in 16° C. day 13° C. night temperatures
After 2-3 weeks in the glasshouse, depending on the time of year, the plants were visually assessed for morphological characteristics. Formulations blanks were used as controls to assess the Plants.

Row | Structure (SMILES) | Total Retardation expressed as a percentage of the total retardation caused by paclobutrazol [1] | percent reduction in plant height vs formulation blank at 1000 ppm (Apples; side-by-side, Table XVII) [%] | percent reduction in plant height vs formulation blank at 4000 ppm (Apples; side-by-side, Table XVII) [%] | Percent reduction in rice plant height vs formulation blank at 1000 ppm (Rice [4]; side-by-side, Table XVI) [%] | Percent reduction in rice plant height vs formulation blank at 4000 ppm (Rice [4]; side-by-side, Table XVI) [%] | height reduction vs blank at 1000 ppm (Spring Barley; side-by-side, Table XV) [%] | height reduction vs blank at 4000 ppm (Spring Barley; side-by-side, Table XV) [%] | percent reduction in plant height vs formulation blank at 4000 ppm (Apples; Table IX) [%] | also measured
1 | CC(C)(C)C=CC(O)(Cn1cncn1)C(C)(C)C (stereo not shown) [A, reference compound] | 62.5 % of paclobutrazol | 2 | 14 | 4 | 20 | 5 | 13 |  | range of activity / superiority in comparison with EP 0052424 compounds ([1]; Tables X and XI, across screen comparison): higher range of activity than the rest of the compounds; G = Greening effect (Wheat [2]; side-by-side, Table XIII): 1 (10-30%); T = Tillering or side shooting (Rice [3]; side-by-side, Table XIII): 2 (31-60%); I = Interligular or internodal length reduction (Maize; side-by-side, Table XIII): 1 (10-30%); R = Retardation (Maize; side-by-side, Table XIII): 1 (10-30%)
2 | CC(C)(C)C(O)(C=Cc1ccc(Cl)cc1)Cn1cncn1 (stereo not shown) [B, reference compound] | 43.1 % of paclobutrazol | 0 | 3 | 3 | 11 | 8 | 7 |  | I = Interligular or internodal length reduction (Rice [3]; side-by-side, Table XIII): 1 (10-30%); R = Retardation (Rice [3]; side-by-side, Table XIII): 1 (10-30%); I = Interligular or internodal length reduction (Maize; side-by-side, Table XIII): 1 (10-30%); R = Retardation (Maize; side-by-side, Table XIII): 1 (10-30%); T = Tillering or side shooting (Barley; side-by-side, Table XIII): 1 (10-30%)
3 | COC(C)(C)C#CC(O)(Cn1cncn1)C(C)(C)C (stereo not shown) [D, reference compound] | 3.6 % of paclobutrazol | 0 | 0 | 2 | 7 | 9 | 13 |  | 
4 | CCCC#CC(O)(Cn1cncn1)C(C)(C)CCl (stereo not shown) [Compound 19] |  |  |  |  |  |  |  | 36.6 | 
5 | CCCC#CC(Cn1cncn1)(OC)C(C)(C)C (stereo not shown) [Compound 12] |  |  |  |  |  |  |  | 33.6 | percent reduction in plant height vs formulation blank at 1000 ppm (Apples; Table IX): 15.7%; I = Interligular or internodal length reduction (Maize; 2-6 weeks, Table V): 1 (10-30%); R = Retardation (Maize; 2-6 weeks, Table V): 1 (10-30%); Percent reduction in rice plant height vs formulation blank at 1000 ppm (Rice [4]; Table VII): 23.8%; Percent reduction in rice plant height vs formulation blank at 4000 ppm (Rice [4]; Table VII): 49.7%; height reduction vs blank at 1000 ppm (Spring Barley; Table VIII): 2.7%; height reduction vs blank at 4000 ppm (Spring Barley; Table VIII): 12.6%
6 | CCCC#CC(O)(Cn1cncn1)C(C)(C)C (stereo not shown) [Compound 11] |  |  |  |  |  |  |  |  | Retardation score (1-3) with greening (G), apical damage (A), tillering/side shooting (T) (Wheat [5]): 1 (10-30% retardation); Retardation score (1-3) with greening (G), apical damage (A), tillering/side shooting (T) (Tomato): 2T; Retardation score (1-3) with greening (G), apical damage (A), tillering/side shooting (T) (Cynosurus cristatus): 1 (10-30% retardation); height reduction vs blank at 1000 ppm (Spring Barley; Table VIII): 24%; height reduction vs blank at 4000 ppm (Spring Barley; Table VIII): 49.4%
7 | CCCCCCC#CC(O)(Cn1cncn1)C(C)(C)CF (stereo not shown) [Compound 21] |  |  |  |  |  |  |  | 0 | percent reduction in plant height vs formulation blank at 1000 ppm (Apples; Table IX): 10%
8 | CC(C)(C)C(O)(C#Cc1ccc(Cl)cc1)Cn1cncn1 (stereo not shown) [C, reference compound] | 7.1 % of paclobutrazol | 0 | 0 | 5 | 13 | 4 | 6 |  | 
9 | CCCCCC#CC(O)(Cn1cncn1)C(C)(C)CF (stereo not shown) [Compound 20] |  |  |  |  |  |  |  |  | G = Greening effect (Wheat [2]; 2-6 weeks, Table V): 2 (31-60%); T = Tillering or side shooting (Wheat [2]; 2-6 weeks, Table V): 2 (31-60%); T = Tillering or side shooting (Rice [3]; 2-6 weeks, Table V): 1 (10-30%); I = Interligular or internodal length reduction (Barley; 2-6 weeks, Table V): 1 (10-30%)
